In patent publication US20180296630A1, “METHODS AND COMPOSITIONS FOR PREVENTING OR TREATING OPHTHALMIC CONDITIONS” (Stealth BioTherapeutics Corp, priority 2012, published 2018):

Assays:
[1] = tested on: STZ and HFD/STZ diabetic rats; experiment: Inner blood-retinal barrier function (Evans blue extravasation) in diabetic SD rats; type: in vivo, Sprague-Dawley rat; details: compared to rats on a HFD not administered peptide
Procedure: FIGS. 10A and 10B are charts showing the integrity of the blood-retinal barrier of normal rats (NRC), diabetic rats, and diabetic rats treated with Phe-D-Arg-Phe-Lys-NH2 (SS-20) or D-Arg-2′,6′-Dmt-Lys-Phe-NH2(SS-31), as analyzed by Evans blue extravasation. (A) diabetes induced by STZ; (B) diabetes induced by HFD/STZ.
A rat model of diabetes was established by combination of 6-week HFD and low dose of STZ (30 mg/kg) injection or a single high dose of STZ (65 mg/kg) in SD rats. See generally, K. Srinivasan, B. Viswanad, Lydia Asrat, C. L. Kaul and P. Ramarao, Combination of high-fat diet-fed and low-dose streptozotocin-treated rat: A model for type 2 diabetes and pharmacological screening, Pharmacological Research, 52(4): 313-320, 2005. Rats of the same batch fed with normal chow (NRC) were used as a control.
The effect of the aromatic-cationic peptides on the inner blood-retinal barrier function in the SD rat model was investigated.

[2] = tested on: primary human retinal pigment epithelial (RPE) cells; experiment: Apoptosis of RPE cells induced by tBHP; type: cell-based; details: 1 μM for 4 h + 250 μM tBHP for 24 h
Procedure: FIG. 34A: control group; (Q2+Q4)%=1.27±0.3%; FIG. 34B: 250 μM tBHP for 24 h group; (Q2+Q4)%=15.7±0.6%; FIG. 34C: 1 μM D-Arg-2′,6′-Dmt-Lys-Phe-NH2 for 4 h+250 μM tBHP for 24 h group; (Q2+Q4)%=8.4±0.8%. FIG. 34D is a chart comparing the fluorescence ratio for the different groups. *P<0.05 C vs. B. FIG. 35 is a chart showing the MDA level induced by tBHP in 3 groups of RPE cells. (*P<0.05).

STZ-treated mice = experiment: Spatial frequency (SPF) threshold in STZ-treated / diabetic-diet mice; type: in vivo
Procedure: Subjects were maintained on a normal diet (ND) or diabetic diet (DD) for up to 32 weeks, and were administered D-Arg-2′,6′-Dmt-Lys-Phe-NH2 or control vehicle with or without streptozotocin. Results are shown in FIG. 41, with response values are averaged for each eye.

## D-Arg-2′,6′-Dmt-Lys-Phe-NH2
[1]
  inner blood-retinal barrier function: improved
[2]
  (Q2+Q4)% cell apoptosis: 8.4±0.8%
STZ-treated mice; STZ-treated animals maintained on a diabetic diet, eyedrop
  rescue of visual impairment by eyedrop versus systemic administration: one month sooner
STZ-treated mice; STZ-treated animals, systemic treatment initiated at 12 weeks
  time by which the visual deficit was fully rescued: ≤ 24 weeks
STZ-treated mice; animals on a diabetic diet alone
  time by which rescue was shown: ≤ 30 weeks
STZ-treated mice; animals on a diabetic diet and administered STZ
  time by which the visual deficit was fully restored: ≤ 24 weeks
STZ-treated mice; animals with metabolic dysfunction
  visual impairment (spatial frequency threshold): rescued
